Data from patent US20240103005A1, “N-ACRYLOYLINDOLES AND METHODS OF USE” (The University of Hong Kong, priority 2022, published 2024).
“Also recorded” adds a separate entry of the source.

What was measured:
[1] = Reaction kinetics of cysteine-reactive compounds with N-acetyl-L-cysteine methyl ester (LC-MS); type: physicochemical; conditions: for time to complete reaction with N-acetylcysteine methyl ester: PBS/MeOH 4:1; for calculated rate constant, fold faster than NAIA: reaction with N-Ac-Cys-OMe 250 μM
Description: Reaction Kinetics of Cysteine-Reactive Compounds with N-Acetyl-L-Cysteine Methyl Ester
Stock solution of cysteine-reactive compound in DMSO was diluted by PBS/MeOH solution mixture (4:1, v/v; 500 μL), reaching final concentration of 10 μM. Stock solution of N-acetyl-L-cysteine methyl ester in DMSO was then freshly prepared, and added to the compound solution at final concentration of 250 μM. The solution mixture was incubated at room temperature, and at predetermined time intervals, an aliquot of the reaction mixture (10 μL) was sent for LC-MS analysis on Waters Autopurification System using a SunFire C18 HPLC column (50×4.6 mm with 5 μm diameter particles, Waters). Separation was achieved by gradient elution from 5% to 100% MeCN in water (constant 0.1 vol % formic acid) over 4 min, isocratic elution with 100% MeCN (with 0.1 vol % formic acid) from 4 to 8 min, and returning to 5% MeCN in water (with 0.1 vol % formic acid) and equilibrated for 2 min. Selected ion chromatograms, with m/z corresponding to the molecular ion of the compound and/or the adduct, were extracted and the data was analyzed using MassLynx™ software by calculating the area under the curve. The peak area was then calibrated to concentration of the compound/adduct by a set of solution mixtures containing known concentrations of the compound/adduct.
The reactivity of NAIA with cysteine in aqueous buffer solution has been investigated by LC-MS experiments (FIGS. 1A-1J). […] Upon addition of N-acetylcysteine methyl ester (250 μM), NAIA-5 reacted quickly and completely with N-acetylcysteine methyl ester within […], as reflected by the diminishment of the peak of NAIA-5 at t=6.20 min with a concomitant growth of a new peak at t=5.60 min in the LC, which is attributable to the cysteine adduct of NAIA-5 based on the MS (FIGS. 1B-1G). […] This highlights the important contribution of aromaticity of indole scaffold to increase electrophilicity of acrylamide warhead for fast and complete cysteine reaction in aqueous buffer solution.
Next, we monitored the reaction between NAIA-amide (10 μM) and N-acetylcysteine methyl ester (250 μM) by LC-MS analysis (FIG. 17A). Complete conversion of NAIA-C5 amide was observed within 40 s as indicated by the disappearance of NAIA-C5 amide peak (t=5.09 min) and emergence of the adduct peat (t=4.80 min) in the LC trace (FIG. 17B). Likewise, the reaction of NAIA-C4 amide proceeded with fast kinetics and was completely consumed in 1 min (FIG. 17C). The calculated rate constant of NAIA-C5 amide and NAIA-C4 amide were 2-fold and 1.2-fold faster than NAIA (FIG. 17D). […] Owning to the excellent reaction rate of NAIA-C5 amide, it was taken forward for further comparative analysis in subsequent experiments.

[2] = Selectivity for reacting with Cys over other amino acids (LC-MS); type: physicochemical; conditions: compound 10 μM, amino acid 30 μM (3 equiv.), 30 min, PBS/MeOH 4:1
Description: Selectivity of NAI for Reacting with Cys Over Other Amino Acids
Stock solution of NAIA-4 and NAIA-5, respectively, in DMSO was diluted by PBS/MeOH solution mixture (4:1, v/v; 500 μL), reaching final concentration of 10 μM. Stock solution of amino acid in DMSO was then freshly prepared, and added to the compound solution at final concentration of 30 μM. The solution mixture was incubated at room temperature for 30 min. After that, an aliquot of the reaction mixture (10 μL) was sent for LC-MS analysis. Selected ion chromatograms, with m/z=325 corresponding to [NAIA-4+H]^+ or [NAIA-5+H]^+, were extracted and analyzed by integrating the area under curve.
(§1) As fast-reacting probes are often susceptible to hydrolysis, we sought to investigate the aqueous stability of NAIA-C5 amide. […] Taking the excellent reaction kinetics and a mere 14% degradation in 30 min into account, NAIA-C5 amide was considered to be a useful tool in cysteine profiling (FIG. 17C and FIG. 17F).

231MFP cell lysates = assay: Gel-based ABPP, Cys labeling of 231MFP cell lysates (in-gel fluorescence); type: biochemical; conditions: 30 min incubation
Description: FIGS. 10A-10D. Gel-based ABPP experiments of NAIA-4 to investigate its ability to label Cys in cell lysates and live cells. (FIGS. 10A-10B) 231MFP cell lysates (20 μg) were incubated with NAIA-4 or IAA at indicated concentrations for 30 min, following by CuAAC reaction with azide-fluor 545 (5 μM). The labeled proteins were then boiled with sampling buffer, and read out by in-gel fluorescence after SDS-PAGE. Quantified data were shown in average±s.e.m. from n=3 replicates/group. Statistical significance vs untreated control is expressed as *p<0.05; ***p<0.001, and vs different treatment groups is expressed as “p<0.01; ^###p<0.001. (FIGS. 10C-10D) 231MFP cells were pre-treated with NAIA-4 or IAA at indicated concentrations for 1 h. […] The cell lysates were labeled with azide-fluor 545 (25 μM) by CuAAC reaction, and the labeled protein were detected by in-gel fluorescence after SDS-PAGE. Quantified data were shown in average±s.e.m. from n=3 biological replicates/group. Statistical significance is expressed as *p<0.05; ***p<0.001.
In-Gel Fluorescence for Visualizing Cys Labeling by NAIAs and IAA In Vitro
HepG2 or 231MFP cells were lysed by probe sonication in DPBS, and cell debris were removed by centrifugation at 1,000 g for 5 min. Protein concentration of the lysates was determined by bicinchoninic acid (BCA) assay, and the lysates were then diluted to 2 mg/mL by DPBS. […]

231MFP cells [3] = assay: Gel-based ABPP, Cys labeling in live 231MFP cells; type: cell-based; conditions: 1 h pre-treatment
Description: FIGS. 10A-10D. Gel-based ABPP experiments of NAIA-4 to investigate its ability to label Cys in cell lysates and live cells. (FIGS. 10A-10B) 231MFP cell lysates (20 μg) were incubated with NAIA-4 or IAA at indicated concentrations for 30 min, following by CuAAC reaction with azide-fluor 545 (5 μM). The labeled proteins were then boiled with sampling buffer, and read out by in-gel fluorescence after SDS-PAGE. Quantified data were shown in average±s.e.m. from n=3 replicates/group. Statistical significance vs untreated control is expressed as *p<0.05; ***p<0.001, and vs different treatment groups is expressed as “p<0.01; ^###p<0.001. (FIGS. 10C-10D) 231MFP cells were pre-treated with NAIA-4 or IAA at indicated concentrations for 1 h. The cells were then washed with DPBS and lysed in DPBS by probe sonication. The cell lysates were labeled with azide-fluor 545 (25 μM) by CuAAC reaction, and the labeled protein were detected by in-gel fluorescence after SDS-PAGE. Quantified data were shown in average±s.e.m. from n=3 biological replicates/group. Statistical significance is expressed as *p<0.05; ***p<0.001.
In-Gel Fluorescence for Visualizing Cys Labeling by NAIAs and IAA in Live Cells
231MFP or HepG2 cells were grown in 10-cm plates in complete medium. […] Protein concentration of the lysates was determined by BCA assay, and the lysates were diluted to 2 mg/mL by DPBS. […]

231MFP cells [4] = assay: WST-8 cell viability assay; type: cell-based; conditions: WST-8, 2 h incubation; read-out: IC50 (cytotoxicity)
Description: WST-8 Cell Viability Assay of Cells Treated with NAIA-4 or IAA
231MFP cells were plated on 96-well plates (Corning, 3904) at 30,000 cells per well and allowed to grow in complete medium overnight. The cells were then incubated with DMSO solvent control, NAIA-4 or IAA at indicated concentrations for 2 h. The solution was replaced with new culture medium containing 10 μL of WST-8 solution (Abcam; ab228554) and incubated for 2 h in dark at 37° C. Cell viability were then assayed by the absorption at 460 nm on SpectraMax i3 (Molecular Devices).

[5] = Stability in aqueous buffer solution over time (LC-MS); type: physicochemical
Description: Stability of NAIA-5 in Aqueous Buffer Solution Over Time
NAIA-5 (10 μM) was dissolved in PBS/MeOH solution mixture (4:1, v/v; 500 μL) and stay at room temperature. At predetermined time intervals, an aliquot of the reaction mixture (10 μL) was sent for LC-MS analysis on Waters Autopurification System using a SunFire C18 HPLC column (50×4.6 mm with 5 μm diameter particles, Waters). Separation was achieved by gradient elution from 5% to 100% MeCN in water (constant 0.1 vol % formic acid) over 4 min, isocratic elution with 100% MeCN (with 0.1 vol % formic acid) from 4 to 8 min and returning to 5% MeCN in water (with 0.1 vol % formic acid) and equilibrated for 2 min. Selected ion chromatograms, with m/z=325 corresponding to [NAIA-5+H]^+, were extracted and analyzed by integrating the area under curve.
as §1

HCT116 cell lysates = assay: Gel-based ABPP, Cys labeling of HCT116 cell lysates; type: biochemical
Description: FIGS. 18A-18B Gel-based ABPP analysis of NAIA-amides, NAIA-5 and IAA on Cys labeling of HCT116 cell lysates in vitro. HCT116 cell lysates (100 μg) were incubated with the compounds at indicated concentrations and time intervals, following by CuAAC reaction with azide-fluor 545 (25 μM). The labeled proteins were then boiled with sampling buffer, and read out by in-gel fluorescence after SDS-PAGE.
Confirming the reaction between NAIA-C5 amide and cysteine in vitro, we moved on to evaluate its application for cysteine profiling in complex biological sample. To assess this, we performed gel-based ABPP in cell lysates and in live cells. HCT116 cell lysates were incubated with IAA, NAIA and NAIA-Amide, followed by installation of fluorophore by click chemistry. Then, the labelled proteins were resolved by SDS-PAGE and visualized by their in-gel fluorescence. […] In time-dependent experiments, a 15-minute incubation of NAIA-C5 amide with HCT116 cell lysates was sufficient to have decent labeling, highlighting its quick labeling (FIG. 18B).

[6] = compound 10 μM, N-Ac-Cys-OMe 250 μM

SMILES: C=CC(=O)N1CCc2ccccc21 [NAine, N-acryloylindoline]
- reaction kinetics with cysteine (k) ([1]; FIG. 7 legend summary): < 10^0 M^−1 s^−1

SMILES: C#CCCCCNC(=O)COc1cccc2c1ccn2C(=O)C=C [NAIA-4]
- time to complete reaction with N-acetylcysteine methyl ester [1, 6]: ≤ 120 s
- selectivity toward cysteine over other amino acids [2]: excellent selectivity toward cysteine over other amino acids; also recorded: Significant decreases in NAIA-4 and NAIA-5 levels were only found in the solution mixture with N-acetyl-L-cysteine methyl ester
- cysteine labeling (in-gel fluorescence) compared with IAA (231MFP cell lysates): better labeling from NAIA-4 than IAA at all the doses tested
- cysteine labeling in live cells (in-gel fluorescence) compared with IAA (231MFP cells [3]): more labeling of functional cysteines by NAIA-4 than IAA
- IC50 (231MFP cells [4]): > 40 µM

SMILES: C#CCCCCNC(=O)c1ccc2c(ccn2C(=O)C=C)c1 [NAIA-C5 amide]
- time to complete reaction with N-acetylcysteine methyl ester [1, 6]: ≤ 40 s
- calculated rate constant, fold faster than NAIA [1]: 2 fold
- selectivity toward cysteine over other amino acids [2]: only incubation with cysteine consumed NAIA-C5 amide to an undetectable level
- change of compound level in aqueous buffer solution over time (in words) ([5]; 10 μM, PBS/MeOH 4:1, room temperature): gradual degradation was observed in 3 hours
- degradation in aqueous buffer ([5]; 30 min): 14%
- in-gel fluorescence (in words) (HCT116 cell lysates): comparable to that by NAIA; also recorded: significantly stronger fluorescence was detected in samples incubated with NAIA or NAIA-C5 amide in a dose-dependent manner
- overall in-gel fluorescence intensity, fold higher than IAA (HCT116 cell lysates): 3 fold
- incubation time sufficient for decent labeling (HCT116 cell lysates; time-dependent experiment): 15 min

SMILES: C#CCCCCNC(=O)c1cccc2c1ccn2C(=O)C=C [NAIA-C4 amide]
- time to complete consumption by N-acetylcysteine methyl ester [1, 6]: 1 min
- calculated rate constant, fold faster than NAIA [1]: 1.2 fold

SMILES: C#CCCCCNC(=O)c1cn(C(=O)C=C)c2ccccc12 [NAIA-C3 amide]
- cysteine reaction rate (in words) [1, 6]: reacted relatively slower despite it still showed superior reaction kinetics over IAA
